Literature values in patent US20230285287A1, “PHARMACEUTICAL COMPOSITIONS” (DOUGLAS PHARMACEUTICALS LIMITED, priority 2019, published 2023).
Entries after “also recorded” stand apart in the source; their conditions may differ.

Settings: known from the literature (Donato et al.)

CC(C)c1nc(CN(C)C(=O)N[C@H](C(=O)N[C@@H](Cc2ccccc2)C[C@H](O)[C@H](Cc2ccccc2)NC(=O)OCc2cncs2)C(C)C)cs1 [Ritonavir, 1,3-thiazol-5-ylmethyl N-[(2S,3S,5S)-3-hydroxy-5-[[(2S)-3-methyl-2-[[methyl-[(2-propan-2-yl-1,3-thiazol-4-yl)methyl]carbamoyl]amino]butanoyl]amino]-1,6-diphenylhexan-2-yl]carbamate]
chemical stability / degradation route: thermolytically driven; also recorded: particularly prone to hydrolysis; also recorded: oxygen labile
